From the supplement of paper PMC11208160 come the findings set out here.
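Also: IS621 recombinase and bridge RNA in Escherichia coli cells.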

The series in a line: recombinant barcode read abundance after kanamycin selection (control-corrected) (log10(CPM+1)); higher = more efficient recombination; sequences stand for … in AGTGCAGAGAAAATCGGCCAGTTTTCTCTGCCTGCAGTCCGCATGCCGT…AGATTTATGCAGCGGACTGCCTTTCTCCCAAAGTGATAAACCGGACAGTATCATGGACCGGTTTTCCCGGTAATCCGTATTTGCAAGGTTGGTTTCACT; site = the 11-nt target. In outline:
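IS621 bridge RNA target-binding loops were paired with targets in a pooled library tested in E. coli. After co-electroporation with a donor plasmid, cells were plated in two replicates on chloramphenicol/ampicillin LB agar (control) and on chloramphenicol/ampicillin/kanamycin carrying 0.1 mM IPTG. Barcodes at recombinant junctions were counted as counts per million, averaged and control-corrected to give recombination efficiency. Values are log10(CPM+1).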
“TCGTGAGCTTGGGTTCTAACCTGTTGCTG (site TCGTGAGCTCA)”: the “recombinant barcode read abundance (log10)” value turned out to be 0.301.
On to “TCGTGCCCTTGGGTTCTAACCTGTTGCCT (site TCGTGCACTAG)”, for which the “recombinant barcode read abundance (log10)” value turned out to be 0.0746.
In the case of “TCGTGCCCTTGGGTTCTAACCTGTTGCCT (site TCGTGCCCTAG)”, the “recombinant barcode read abundance (log10)” value was determined as 0.398.
Regarding “TCGTGCCCTTGGGTTCTAACCTGTTGCCT (site TCGTGCGCTAG)”, the “recombinant barcode read abundance (log10)” value was 0.165.
In the case of “TCGTGCCCTTGGGTTCTAACCTGTTGCCT (site TCGTGCTCTAG)”, the “recombinant barcode read abundance (log10)” value worked out at 0.0522.
Take “TCGTTCGCTTGGGTTCTAACCTGTTGCCG (site GTCAGATCTAA)”: the “recombinant barcode read abundance (log10)” value was 0.37.
For “TCGTTCGCTTGGGTTCTAACCTGTTGCCG (site TCGTTCGCTCG)”, the “recombinant barcode read abundance (log10)” value was 0.0881.
Regarding “TCTAAACCTTGGGTTCTAACCTGTTGCAT (site TCTAAACCTAT)”, the “recombinant barcode read abundance (log10)” value amounted to 0.197.
In the case of “TCTAAACCTTGGGTTCTAACCTGTTGCAT (site TCTAACCCTAT)”, the “recombinant barcode read abundance (log10)” value turned out to be 0.142.
Consider “TCTAAACCTTGGGTTCTAACCTGTTGCAT (site TCTAAGCCTAT)”, for which the “recombinant barcode read abundance (log10)” value is 0.0795.
For the sequence “TCTAAACCTTGGGTTCTAACCTGTTGCAT (site TCTAATCCTAT)”, the “recombinant barcode read abundance (log10)” value was determined as 0.229.
Take “TCTAAGACTTGGGTTCTAACCTGTTGCGC (site CTACCCTCTAG)”: the “recombinant barcode read abundance (log10)” value was 0.0242.
For the sequence “TCTAAGACTTGGGTTCTAACCTGTTGCGC (site TCTAAGACTGC)”, the “recombinant barcode read abundance (log10)” value was found to be 1.26.
Turning to “TCTAAGCCTTGGGTTCTAACCTGTTGCAT (site TCTAAACCTAT)”, the “recombinant barcode read abundance (log10)” value is 0.152.
Take “TCTAAGCCTTGGGTTCTAACCTGTTGCAT (site TCTAACCCTAT)”: the “recombinant barcode read abundance (log10)” value stood at 0.259.
Turning to “TCTAAGCCTTGGGTTCTAACCTGTTGCAT (site TCTAAGCCTAT)”, the “recombinant barcode read abundance (log10)” value amounted to 0.531.
Consider “TCTAAGCCTTGGGTTCTAACCTGTTGCAT (site TCTAATCCTAT)”, for which the “recombinant barcode read abundance (log10)” value came to 0.0292.
Turning to “TCTACCTCTTGGGTTCTAACCTGTTGCCT (site TCTACATCTAG)”, the “recombinant barcode read abundance (log10)” value was found to be 0.0227.
On to “TCTACCTCTTGGGTTCTAACCTGTTGCCT (site TCTACCTCTAG)”, for which the “recombinant barcode read abundance (log10)” value came out at 1.19.
Take “TCTACCTCTTGGGTTCTAACCTGTTGCCT (site TCTACGTCTAG)”: the “recombinant barcode read abundance (log10)” value was 0.102.
Regarding “TCTACCTCTTGGGTTCTAACCTGTTGCCT (site TCTACTTCTAG)”, the “recombinant barcode read abundance (log10)” value came out at 0.0484.
Turning to “TCTACGTCTTGGGTTCTAACCTGTTGCCT (site TCTACATCTAG)”, the “recombinant barcode read abundance (log10)” value worked out at 0.0403.
In the case of “TCTACGTCTTGGGTTCTAACCTGTTGCCT (site TCTACCTCTAG)”, the “recombinant barcode read abundance (log10)” value amounted to 0.00686.
With “TCTACGTCTTGGGTTCTAACCTGTTGCCT (site TCTACGTCTAG)”, the “recombinant barcode read abundance (log10)” value is 0.168.
For “TCTACGTCTTGGGTTCTAACCTGTTGCCT (site TCTACTTCTAG)”, the “recombinant barcode read abundance (log10)” value turned out to be 0.126.
“TCTCACCCTTGGGTTCTAACCTGTTGCCT (site TCTCACCCTAG)”: the “recombinant barcode read abundance (log10)” value was determined as 0.516.
Consider “TCTCACCCTTGGGTTCTAACCTGTTGCCT (site TCTGATCCTAG)”, for which the “recombinant barcode read abundance (log10)” value was determined as 0.0773.
Turning to “TCTCATTCTTGGGTTCTAACCTGTTGCGT (site TCTAATTCTAC)”, the “recombinant barcode read abundance (log10)” value came out at 0.0146.
As to “TCTCATTCTTGGGTTCTAACCTGTTGCGT (site TCTCATTCTAC)”, the “recombinant barcode read abundance (log10)” value turned out to be 0.937.
Regarding “TCTCATTCTTGGGTTCTAACCTGTTGCGT (site TCTGATTCTAC)”, the “recombinant barcode read abundance (log10)” value worked out at 0.163.
“TCTCATTCTTGGGTTCTAACCTGTTGCGT (site TCTTATTCTAC)”: the “recombinant barcode read abundance (log10)” value came out at 0.0829.
With “TCTCCGCCTTGGGTTCTAACCTGTTGCCT (site TCTCAGCCTAG)”, the “recombinant barcode read abundance (log10)” value is 0.139.
“TCTCCGCCTTGGGTTCTAACCTGTTGCCT (site TCTCCGCCTAG)”: the “recombinant barcode read abundance (log10)” value is 0.431.
In the case of “TCTCCGCCTTGGGTTCTAACCTGTTGCCT (site TCTCGGCCTAG)”, the “recombinant barcode read abundance (log10)” value was 0.0901.
Regarding “TCTCCGCCTTGGGTTCTAACCTGTTGCCT (site TCTCTGCCTAG)”, the “recombinant barcode read abundance (log10)” value came out at 0.0964.
For the sequence “TCTCGATCTTGGGTTCTAACCTGTTGCAT (site CCTCGATCTAT)”, the “recombinant barcode read abundance (log10)” value amounted to 0.0525.
For the sequence “TCTCGATCTTGGGTTCTAACCTGTTGCAT (site TCTCGATCTAT)”, the “recombinant barcode read abundance (log10)” value was found to be 0.273.
Take “TCTCGTCCTTGGGTTCTAACCTGTTGCTA (site AGCAACACTCT)”: the “recombinant barcode read abundance (log10)” value was 0.226.
In the case of “TCTCGTCCTTGGGTTCTAACCTGTTGCTA (site TCTCGTCCTTA)”, the “recombinant barcode read abundance (log10)” value is 0.0623.
On to “TCTCTGCCTTGGGTTCTAACCTGTTGCCT (site TCTCAGCCTAG)”, for which the “recombinant barcode read abundance (log10)” value was 0.277.
In the case of “TCTCTGCCTTGGGTTCTAACCTGTTGCCT (site TCTCCGCCTAG)”, the “recombinant barcode read abundance (log10)” value turned out to be 1.15.
For the sequence “TCTCTGCCTTGGGTTCTAACCTGTTGCCT (site TCTCGGCCTAG)”, the “recombinant barcode read abundance (log10)” value is 0.108.
With “TCTCTGCCTTGGGTTCTAACCTGTTGCCT (site TCTCTGCCTAG)”, the “recombinant barcode read abundance (log10)” value was determined as 0.208.
With “TCTGAAACTTGGGTTCTAACCTGTTGCTT (site GACACCTCTCG)”, the “recombinant barcode read abundance (log10)” value was 0.0724.
To “TCTGAAACTTGGGTTCTAACCTGTTGCTT (site TCTGAAACTAA)” belongs 0.314; to “TCTGAGGCTTGGGTTCTAACCTGTTGCTG (site TCAGAGGCTCA)”, 0.263.
As for “TCTGAGGCTTGGGTTCTAACCTGTTGCTG (site TCCGAGGCTCA)”, the “recombinant barcode read abundance (log10)” value worked out at 0.129.
Then “TCTGAGGCTTGGGTTCTAACCTGTTGCTG (site TCGGAGGCTCA)”, with 0.0364.
“TCTGAGGCTTGGGTTCTAACCTGTTGCTG (site TCTGAGGCTCA)”: the “recombinant barcode read abundance (log10)” value is 0.455.
For the sequence “TCTGCGACTTGGGTTCTAACCTGTTGCCT (site TCAGCGACTAG)”, the “recombinant barcode read abundance (log10)” value is 0.0737.
As for “TCTGCGACTTGGGTTCTAACCTGTTGCCT (site TCCGCGACTAG)”, the “recombinant barcode read abundance (log10)” value was found to be 0.455.
Then “TCTGCGACTTGGGTTCTAACCTGTTGCCT (site TCGGCGACTAG)”, with 0.114; and “TCTGCGACTTGGGTTCTAACCTGTTGCCT (site TCTGCGACTAG)”, with 0.265.
With “TCTGGGGCTTGGGTTCTAACCTGTTGCCT (site ACTGGGGCTTG)”, the “recombinant barcode read abundance (log10)” value came to 0.0588.
“TCTGGGGCTTGGGTTCTAACCTGTTGCCT (site TCTGGGGCTAG)”: the “recombinant barcode read abundance (log10)” value stood at 0.0357.
Regarding “TCTGGGGCTTGGGTTCTAACCTGTTGCGG (site TCTGGGGCTCA)”, the “recombinant barcode read abundance (log10)” value worked out at 0.376.
For “TCTGGGGCTTGGGTTCTAACCTGTTGCGG (site TCTGGGGCTCC)”, the “recombinant barcode read abundance (log10)” value was 2.61.
In the case of “TCTGGGGCTTGGGTTCTAACCTGTTGCGG (site TCTGGGGCTCG)”, the “recombinant barcode read abundance (log10)” value is 0.271.
To “TCTGGGGCTTGGGTTCTAACCTGTTGCGG (site TCTGGGGCTCT)” belongs 2.22.
“TCTGTAACTTGGGTTCTAACCTGTTGCCT (site CAATCCTCTTA)”: the “recombinant barcode read abundance (log10)” value is 0.183.
With “TCTGTAACTTGGGTTCTAACCTGTTGCCT (site TCTGTAACTAG)”, the “recombinant barcode read abundance (log10)” value is 0.421.
Consider “TCTGTGTCTTGGGTTCTAACCTGTTGCTA (site ATATCAACTCG)”, for which the “recombinant barcode read abundance (log10)” value turned out to be 0.0225.
On to “TCTGTGTCTTGGGTTCTAACCTGTTGCTA (site TCTGTGTCTTA)”, for which the “recombinant barcode read abundance (log10)” value is 1.46.
Regarding “TCTTATACTTGGGTTCTAACCTGTTGCAT (site TCTTATACTAC)”, the “recombinant barcode read abundance (log10)” value was 0.0107.
Then “TCTTATACTTGGGTTCTAACCTGTTGCAT (site TCTTATACTAT)”, with 0.186; and “TCTTGACCTTGGGTTCTAACCTGTTGCTT (site GGCACCACTCG)”, with 0.063.
“TCTTGACCTTGGGTTCTAACCTGTTGCTT (site TCTTGACCTAA)”: the “recombinant barcode read abundance (log10)” value was determined as 0.242.
For the sequence “TCTTGCTCTTGGGTTCTAACCTGTTGCCT (site AGAACTCCTCA)”, the “recombinant barcode read abundance (log10)” value stood at 0.102.
To “TCTTGCTCTTGGGTTCTAACCTGTTGCCT (site TCTTGCTCTAG)” belongs 0.574.
As for “TCTTGGACTTGGGTTCTAACCTGTTGCTT (site TCTTGGACTAA)”, the “recombinant barcode read abundance (log10)” value worked out at 0.421.
On to “TCTTGGACTTGGGTTCTAACCTGTTGCTT (site TCTTGGACTCA)”, for which the “recombinant barcode read abundance (log10)” value was 0.145.
For “TCTTGGACTTGGGTTCTAACCTGTTGCTT (site TCTTGGACTGA)”, the “recombinant barcode read abundance (log10)” value was 0.0999.
Then “TCTTGGACTTGGGTTCTAACCTGTTGCTT (site TCTTGGACTTA)”, with 0.138.
Consider “TCTTGGTCTTGGGTTCTAACCTGTTGCTA (site TCTTGGTCTTA)”, for which the “recombinant barcode read abundance (log10)” value is 0.0413.
Regarding “TCTTGGTCTTGGGTTCTAACCTGTTGCTA (site TTATGGTCTTA)”, the “recombinant barcode read abundance (log10)” value was 0.208.
To “TCTTGTCCTTGGGTTCTAACCTGTTGCGA (site TCTTGTCCTAC)” belongs 0.0306.
For the sequence “TCTTGTCCTTGGGTTCTAACCTGTTGCGA (site TCTTGTCCTCC)”, the “recombinant barcode read abundance (log10)” value worked out at 0.268.
